Molecular target: T1, human NTH1 (hNTH1, endonuclease III-like protein 1) (Homo sapiens, UniProt P78549)
T1 sequence (P78549 23-304): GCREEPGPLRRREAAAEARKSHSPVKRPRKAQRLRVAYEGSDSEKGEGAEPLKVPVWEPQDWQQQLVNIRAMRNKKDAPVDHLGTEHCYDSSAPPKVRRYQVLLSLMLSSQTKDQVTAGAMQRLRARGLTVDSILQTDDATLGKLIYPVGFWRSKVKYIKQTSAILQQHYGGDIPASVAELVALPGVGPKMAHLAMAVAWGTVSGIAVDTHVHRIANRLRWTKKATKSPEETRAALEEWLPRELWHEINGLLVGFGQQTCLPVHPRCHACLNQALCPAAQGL
Assay type: biochemical

An IC50 of 0.78 µM was found for `Nc1ncnc2c1c(-c1cccc(OCc3ccccc3)c1)cn2[C@H]1C[C@@H](CN2CCC2)C1` [NVP-AEW541] in this work.
